{"source": "patent US11311520B2", "about": "“Substituted dihydroimidazopyridinediones as MKNK1 and MKNK2 inhibitors” (Bayer Pharma Aktiengesellschaft, priority 2017, dated 2022)"}
{"biological_target": "human full-length MKNK1 (Homo sapiens (Human), UniProt Q9BUB5, T344D)", "sequence (Q9BUB5 other isoform, or with tags, fused parts or gaps T344D)": "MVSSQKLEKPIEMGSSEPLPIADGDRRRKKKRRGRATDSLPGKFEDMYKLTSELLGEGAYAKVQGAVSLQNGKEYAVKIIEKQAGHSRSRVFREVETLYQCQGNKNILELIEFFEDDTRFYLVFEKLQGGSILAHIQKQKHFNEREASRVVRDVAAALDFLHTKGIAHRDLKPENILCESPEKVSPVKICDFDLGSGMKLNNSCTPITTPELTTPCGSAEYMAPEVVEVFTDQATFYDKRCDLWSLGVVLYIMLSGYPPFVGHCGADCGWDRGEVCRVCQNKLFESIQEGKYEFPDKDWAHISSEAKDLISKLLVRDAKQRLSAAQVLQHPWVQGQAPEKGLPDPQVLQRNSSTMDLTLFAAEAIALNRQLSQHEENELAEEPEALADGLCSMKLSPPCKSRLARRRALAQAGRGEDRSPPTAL", "test": "MKNK1 kinase high ATP assay (TR-FRET)", "type": "biochemical", "settings": "2 mM ATP, 15 min preincubation with enzyme, GST-MKNK1 (T344D)", "summary_of_the_method": "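GST-tagged full-length human MKNK1 (1-424, T344D, baculovirus-expressed) preincubated 15 min at 22 °C with compound, then reacted 30 min at 22 °C with 2 mM ATP and 0.06 μM biotinylated peptide (final) in HEPES pH 7.5. Phospho-substrate by TR-FRET (665/622 nm ratio), normalised to no-inhibitor and no-enzyme controls.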", "units": {"IC50": "nM"}}
{"smiles": "COc1ccc2c(Nc3cc(C)c4n(c3=O)C3(CCCCC3)NC4=O)ncnc2c1", "note": "[Example 116, 6′-[(7-Methoxyquinazolin-4-yl)amino]-8′-methyl-2′H-spiro[cyclohexane-1,3′-imidazo[1,5-a]pyridine]-1′,5′-dione]", "IC50": 4}
{"smiles": "COc1ccc2ncnc(Nc3cc(C)c4n(c3=O)C3(CCCCC3)NC4=O)c2c1", "note": "[Example 117, 6′-[(6-Methoxyquinazolin-4-yl)amino]-8′-methyl-2′H-spiro[cyclohexane-1,3′-imidazo[1,5-a]pyridine]-1′,5′-dione]", "IC50": 12.5}
{"smiles": "COc1cccc2ncnc(Nc3cc(C)c4n(c3=O)C3(CCCCC3)NC4=O)c12", "note": "[Example 118, 6′-[(5-Methoxyquinazolin-4-yl)amino]-8′-methyl-2′H-spiro[cyclohexane-1,3′-imidazo[1,5-a]pyridine]-1′,5′-dione]", "IC50": 66.3}
{"smiles": "COc1cc2ncnc(Nc3cc(C)c4n(c3=O)C3(CCCCC3)NC4=O)c2cc1OC", "note": "[Example 119, 6′-[(6,7-Dimethoxyquinazolin-4-yl)amino]-8′-methyl-2′H-spiro[cyclohexane-1,3′-imidazo[1,5-a]pyridine]-1′,5′-dione]", "IC50": 3}
{"smiles": "Cc1cc(Nc2ncnc3c(C)cccc23)c(=O)n2c1C(=O)NC21CCCCC1", "note": "[Example 120, 8′-methyl-6′-[(8-methylquinazolin-4-yl)amino]-2′H-spiro[cyclohexane-1,3′-imidazo[1,5-a]pyridine]-1′,5′-dione]", "IC50": "> 20000"}
{"smiles": "Cc1ccc2c(Nc3cc(C)c4n(c3=O)C3(CCCCC3)NC4=O)ncnc2c1", "note": "[Example 121, 8′-Methyl-6′-[(7-methylquinazolin-4-yl)amino]-2′H-spiro[cyclohexane-1,3′-imidazo[1,5-a]pyridine]-1′,5′-dione]", "IC50": 7.1}
{"smiles": "Cc1ccc2ncnc(Nc3cc(C)c4n(c3=O)C3(CCCCC3)NC4=O)c2c1", "note": "[Example 122, 8′-Methyl-6′-[(6-methylquinazolin-4-yl)amino]-2′H-spiro[cyclohexane-1,3′-imidazo[1,5-a]pyridine]-1′,5′-dione]", "IC50": 13.2}
{"smiles": "Cc1cc(Nc2ncnc3cccc(C)c23)c(=O)n2c1C(=O)NC21CCCCC1", "note": "[Example 123, 8′-Methyl-6′-[(5-methylquinazolin-4-yl)amino]-2′H-spiro[cyclohexane-1,3′-imidazo[1,5-a]pyridine]-1′,5′-dione]", "IC50": 9.7}
{"smiles": "Cc1cc(Nc2ncnc3ccc(C(F)(F)F)cc23)c(=O)n2c1C(=O)NC21CCCCC1", "note": "[Example 124, 8′-Methyl-6′-{[6-(trifluoromethyl)quinazolin-4-yl]amino}-2′H-spiro[cyclohexane-1,3′-imidazo[1,5-a]pyridine]-1′,5′-dione]", "IC50": 49.9}
{"smiles": "Cc1cc(Nc2ncnc3c2CNC3)c(=O)n2c1C(=O)NC21CCC(F)(F)CC1", "note": "[Example 125, 6′-(6,7-Dihydro-5H-pyrrolo[3,4-d]pyrimidin-4-ylamino)-4,4-difluoro-8′-methyl-2′H-spiro[cyclohexane-1,3′-imidazo[1,5-a]pyridine]-1′,5′-dione]", "IC50": 46.5}
{"smiles": "Cc1cc(Nc2ncnc3c2CNC3)c(=O)n2c1C(=O)NC21CCCC1", "note": "[Example 126, 6′-(6,7-Dihydro-5H-pyrrolo[3,4-d]pyrimidin-4-ylamino)-8′-methyl-2′H-spiro[cyclopentane-1,3′-imidazo[1,5-a]pyridine]-1′,5′-dione]", "IC50": 20.3}
{"smiles": "Cc1cc(Nc2ncnc(N)n2)c(=O)n2c1C(=O)NC21CCC(O)(C(F)(F)F)CC1", "note": "(stereo not shown) [Example 127, 6′-[(4-Amino-1,3,5-triazin-2-yl)amino]-4-hydroxy-8′-methyl-4-(trifluoromethyl)-2′H-spiro[cyclohexane-1,3′-imidazo[1,5-a]pyridine]-1′,5′-dione]", "IC50": 71.2}
{"smiles": "Cc1cc(Nc2ncnc3[nH]ccc23)c(=O)n2c1C(=O)NC21CCC(O)(C(F)(F)F)CC1", "note": "(stereo not shown) [Example 128, 4-Hydroxy-8′-methyl-6′-(7H-pyrrolo[2,3-d]pyrimidin-4-ylamino)-4-(trifluoromethyl)-2′H-spiro[cyclohexane-1,3′-imidazo[1,5-a]pyridine]-1′,5′-dione]", "IC50": 1}
